Patent US20250326744A1, “PIPERAZINE DERIVATIVE OR SALT THEREOF, AND PHARMACEUTICAL COMPOSITION” (priority 2022, published 2025)
Counter-ions that a name gives are not always drawn.

Experiments:
mexB (PA) strain = assay: Combinational effect with antibacterial agent against Pseudomonas aeruginosa (Test Examples 2 and 4): mexB (PA) strain with LVFX, TC or AZT at 1/4 MIC, EC99; format: cell-based; conditions: Table 52, Test Example 2, 16 to 20 hours culture, OD595; for EC99, mexB (PA), AZT: combined with AZT at 1/4 MIC; for EC99, mexB (PA), LVFX: combined with LVFX at 1/4 MIC; for EC99, mexB (PA), TC: combined with TC at 1/4 MIC
Protocol: (§1) The combinational effect of the test compound with the antibacterial agent against Pseudomonas aeruginosa was evaluated.
For the evaluation of the inhibitory ability against MexAB-OprM, a mutant strain of Pseudomonas aeruginosa in which MexAB-OprM was expressed as a main drug efflux pump (hereinafter, referred to as a “mexB (PA) strain”) was used. LVFX, TC, or AZT was used as the antibacterial agent used in combination.
The mexB (PA) strain is a strain produced by deleting the genes of MexCD-OprJ, MexEF-OprN, and MexXY in the drug efflux pump of Pseudomonas aeruginosa described in FEMS Microbiology Letters, 2001, Vol. 202, pp. 139 to 143. In the mexB (PA) strain, an expression level of MexB as a drug efflux pump is accelerated.
TC is a tetracycline-based antibacterial agent and is a drug that is discharged outside the bacteria by MexB. AZT is a monobactam-based antibacterial agent and is a drug that is discharged outside the bacteria by MexB.
(§2) AMK and GM are aminoglycoside-based antibacterial agents, and are drugs that are not discharged outside the bacteria by MexB but are discharged outside the bacteria by MexY For the culture of each Pseudomonas aeruginosa strain, a 96-well plate (amount of culture medium per well: 100 μL) was used, and cation-adjusted Mueller Hinton broth (CAMHB) was used. The inoculation amount of the bacteria was set to 10^4 to 5 CFU/well.
(§3) The mexB (PA) strain and the S-3769 strain were cultured for 16 to 20 hours in a culture medium to which each antibacterial agent and test compounds at various concentrations (0 to 800 μM) were added, and the proliferation of the bacterial strains was evaluated by optical turbidity at 595 nm (OD595). The concentration of the antibacterial agent in the culture medium was set to ¼ MIC.
(§4) The proliferation of bacteria in a case where the test compound and the antibacterial agent were not added was measured, and compared with the proliferation of bacteria in a case where the test compound in a case where the antibacterial agent was added at the concentration of ¼ MIC was contained, and the lowest concentration of the test compound at which the proliferation was inhibited by 99% or more was defined as the drug efflux pump inhibitory ability of the test compound as 99% inhibitory effect concentration (EC99).
(§5) The effect of suppressing the proliferation of each test compound in combination with an antibacterial agent at ¼ MIC for mexB (PA) or the S-3769 strain was evaluated as follows according to the value of EC99. • S: EC99≤12.5 μM • A: 12.5 μM<EC99≤25 μM • B: 25 μM<EC99≤100 μM • C: 100 μM<EC99
(§6) The combinational effect of the test compound with the antibacterial agent against Pseudomonas aeruginosa was evaluated in the same manner as in Test Example 2.

S-3769 strain = assay: Combinational effect with antibacterial agent against Pseudomonas aeruginosa (Test Examples 2 and 4): S-3769 strain with AMK or GM at 1/4 MIC, EC99; format: cell-based; conditions: Table 52, Test Example 2, 16 to 20 hours culture, OD595; for EC99, S-3769 strain, AMK: combined with AMK at 1/4 MIC; for EC99, S-3769 strain, GM: combined with GM at 1/4 MIC
Protocol: as §1
The […] was used for evaluating the inhibitory ability against MexXY-OprM. AMK or GM was used as the antibacterial agent used in combination.
The S-3769 strain is a clinically isolated strain collected from a domestic medical institution, and is a strain in which the expression level of MexY is accelerated.
as §2, §3, §4, §5, §6

| Structure (SMILES) | EC99, mexB (PA), AZT (mexB (PA) strain) | EC99, mexB (PA), LVFX (mexB (PA) strain) | EC99, mexB (PA), TC (mexB (PA) strain) | EC99, S-3769 strain, AMK (S-3769 strain) | EC99, S-3769 strain, GM (S-3769 strain) |
| --- | --- | --- | --- | --- | --- |
| CCOc1cccc(F)c1CN1CCN(C(=O)[C@H](N)C2CCN(CCc3c(F)cccc3-c3ccccc3)CC2)CC1 [Example 52, Hydrobromide of (R)-2-amino-1-(4-(2-ethoxy-6-fluorobenzyl)piperazin-1-yl)-2-(1-(2-(3-fluoro-[1,l′-biphenyl]-2-yl)ethyl)piperidin-4-yl)ethan-1-one] | B (25 μM<EC99≤100 μM) | B (25 μM<EC99≤100 μM) | B (25 μM<EC99≤100 μM) | A (12.5 μM<EC99≤25 μM) | S (EC99≤12.5 μM) |
| CCOc1cccc(F)c1CN1CCN(C(=O)[C@H](N)C2CCN(CCc3c(Cl)cccc3-c3ccccc3)CC2)CC1 [Example 53, Hydrobromide of (R)-2-amino-2-(1-(2-(3-chloro-[1,1′-biphenyl]-2-yl)ethyl)piperidin-4-yl)-1-(4-(2-ethoxy-6-fluorobenzyl)piperazin-1-yl)ethan-1-one] | B (25 μM<EC99≤100 μM) | B (25 μM<EC99≤100 μM) | B (25 μM<EC99≤100 μM) | S (EC99≤12.5 μM) | S (EC99≤12.5 μM) |
| CCOc1cccc(F)c1CN1CCN(C(=O)[C@H](N)C2CCN(CCc3cc(Cl)ccc3C3=CCCCC3)CC2)CC1 [Example 56, Hydrobromide of (R)-2-amino-2-(1-(2-(4-chloro-2′,3′,4′,5′-tetrahydro-[1,1′-biphenyl]-2-yl)ethyl)piperidin-4-yl)-1-(4-(2-ethoxy-6-fluorobenzyl)piperazin-1-yl)ethan-1-one] | B (25 μM<EC99≤100 μM) | C (100 μM<EC99) | B (25 μM<EC99≤100 μM) | A (12.5 μM<EC99≤25 μM) | A (12.5 μM<EC99≤25 μM) |
| CCOc1cccc(F)c1CN1CCN(C(=O)[C@H](N)C2CCN(CCc3cc(Cl)ccc3-c3cccc(S(F)(F)(F)(F)F)c3)CC2)CC1 [Example 57, Hydrobromide of (R)-2-amino-2-(1-(2-(4-chloro-3′-(pentafluoro-λ6-sulfanyl)-[1,1′-biphenyl]-2-yl)ethyl)piperidin-4-yl)-1-(4-(2-ethoxy-6-fluorobenzyl)piperazin-1-yl) ethan-1-one] | C (100 μM<EC99) | C (100 μM<EC99) | B (25 μM<EC99≤100 μM) | B (25 μM<EC99≤100 μM) | B (25 μM<EC99≤100 μM) |
| CCOc1cccc(F)c1CN1CCN(C(=O)[C@H](N)C2CCN(CCc3cc(Cl)ccc3-c3cccc(P(C)(C)=O)c3)CC2)CC1 [Example 58, Hydrobromide of (R)-2-amino-2-(1-(2-(4-chloro-3′-(dimethylphosphoryl)-[1,1′-biphenyl]-2-yl)ethyl)piperidin-4-yl)-1-(4-(2-ethoxy-6-fluorobenzyl)piperazin-1-yl) ethan-1-one] | C (100 μM<EC99) | C (100 μM<EC99) | C (100 μM<EC99) | A (12.5 μM<EC99≤25 μM) | B (25 μM<EC99≤100 μM) |
| CCOc1cccc(F)c1CN1CCN(C(=O)[C@H](N)C2CCN(CCc3cc(Cl)ccc3-c3cccc(C#N)c3)CC2)CC1 [Example 65, Hydrobromide of (R)-2′-(2-(4-(1-amino-2-(4-(2-ethoxy-6-fluorobenzyl)piperazin-1-yl)-2-oxoethyl)piperidin-1-yl)ethyl)-4′-chloro-[1,1′-biphenyl]-3-carbonitrile] | B (25 μM<EC99≤100 μM) | C (100 μM<EC99) | B (25 μM<EC99≤100 μM) | A (12.5 μM<EC99≤25 μM) | A (12.5 μM<EC99≤25 μM) |
| CCOc1cccc(F)c1CN1CCN(C(=O)[C@H](N)C2CCN(CCc3cc(Cl)ccc3-c3cccc(C)c3)CC2)CC1 [Example 68, Hydrobromide of (R)-2-amino-2-(1-(2-(4-chloro-3′-methyl-[1,1′-biphenyl]-2-yl)ethyl)piperidin-4-yl)-1-(4-(2-ethoxy-6-fluorobenzyl)piperazin-1-yl)ethan-1-one] | B (25 μM<EC99≤100 μM) | B (25 μM<EC99≤100 μM) | B (25 μM<EC99≤100 μM) | A (12.5 μM<EC99≤25 μM) | A (12.5 μM<EC99≤25 μM) |
| CCOc1cccc(F)c1CN1CCN(C(=O)[C@H](N)C2CCN(CCc3cc(Cl)ccc3-c3ccc(C)cc3)CC2)CC1 [Example 69, Hydrobromide of (R)-2-amino-2-(1-(2-(4-chloro-4′-methyl-[1,1′-biphenyl]-2-yl)ethyl)piperidin-4-yl)-1-(4-(2-ethoxy-6-fluorobenzyl)piperazin-1-yl)ethan-1-one] | C (100 μM<EC99) | C (100 μM<EC99) | B (25 μM<EC99≤100 μM) | S (EC99≤12.5 μM) | S (EC99≤12.5 μM) |
| CCOc1cccc(F)c1CN1CCN(C(=O)[C@H](N)C2CCN(CCc3cc(Cl)ccc3C3=CCNCC3)CC2)CC1 [Example 71, (R)-2-amino-2-(1-(5-chloro-2-(1,2,3,6-tetrahydropyridin-4-yl)phenethyl)piperidin-4-yl)-1-(4-(2-ethoxy-6-fluorobenzyl)piperazin-1-yl)ethan-1-one] | C (100 μM<EC99) | B (25 μM<EC99≤100 μM) | S (EC99≤12.5 μM) | S (EC99≤12.5 μM) | S (EC99≤12.5 μM) |
| CCOc1cccc(F)c1CN1CCN(C(=O)[C@H](N)C2CCN(CCc3cc(Cl)ccc3-c3cccs3)CC2)CC1 [Example 72, Hydrobromide of (R)-2-amino-2-(1-(5-chloro-2-(thiophen-2-yl)phenethyl)piperidin-4-yl)-1-(4-(2-ethoxy-6-fluorobenzyl)piperazin-1-yl)ethan-1-one] | B (25 μM<EC99≤100 μM) | C (100 μM<EC99) | B (25 μM<EC99≤100 μM) | S (EC99≤12.5 μM) | S (EC99≤12.5 μM) |
| CCOc1cccc(F)c1CN1CCN(C(=O)[C@H](N)C2CCN(CCc3cc(Cl)ccc3-c3cccnc3)CC2)CC1 [Example 73, Hydrobromide of (R)-2-amino-2-(1-(5-chloro-2-(pyridin-3-yl)phenethyl)piperidin-4-yl)-1-(4-(2-ethoxy-6-fluorobenzyl)piperazin-1-yl)ethan-1-one] | A (12.5 μM<EC99≤25 μM) | C (100 μM<EC99) | B (25 μM<EC99≤100 μM) | S (EC99≤12.5 μM) | S (EC99≤12.5 μM) |
| CCOc1cccc(F)c1CN1CCN(C(=O)[C@H](N)C2CCN(CCc3cc(Cl)ccc3-c3ccncc3)CC2)CC1 [Example 74, Hydrobromide of (R)-2-amino-2-(1-(5-chloro-2-(pyridin-4-yl)phenethyl)piperidin-4-yl)-1-(4-(2-ethoxy-6-fluorobenzyl)piperazin-1-yl)ethan-1-one] | C (100 μM<EC99) | C (100 μM<EC99) | C (100 μM<EC99) | S (EC99≤12.5 μM) | A (12.5 μM<EC99≤25 μM) |
